Experimental data as given in ChEMBL document CHEMBL5523693, “Exploration of the P1 residue in 3CL protease inhibitors leading to the discovery of a 2-tetrahydrofuran P1 replacement” (Bioorg Med Chem, 2024).
Where a SMILES comes first, the peptide text is derived from it. [ ]: non-standard residue; d: D form. The star is where a group is joined. Phe(4-F) = N[C@@H](Cc1ccc(F)cc1)C(=O)O; Cbz = O=C(OCc1ccccc1)*

Experiments:
[1] = biological target: Replicase polyprotein 1ab (Severe acute respiratory syndrome coronavirus 2, UniProt P0DTD1); test: Inhibition of SARS-CoV-2 3CL protease by FRET assay
[2] = Cytotoxicity against human MRC5 cells infected with […] inhibition of cell growth; assay type: toxicity, cell-based
[3] = cells; settings: Betacoronavirus 1, MRC5, read-out: pEC50 (converted)
Description: Antiviral activity against SARS-CoV-2 OC43 infected in human MRC5 cells assessed as inhibition of bacterial growth

[4] = tested on: SARS-CoV-2; test: microbe, parasite or virus in culture; settings: Severe acute respiratory syndrome coronavirus 2, Vero, read-out: pEC50 (converted)
Description: Antiviral activity against SARS-CoV-2 infected in african green monkey Vero cells assessed as virus-induced cell death

[5] = biological target: Replicase polyprotein 1ab (Severe acute respiratory syndrome coronavirus 2) (UniProt P0DTD1); test: Binding affinity to SARS-CoV-2 3CL protease assessed as biphasic dissociation rate by measuring half life by jump dilution assay
[6] = Permeability of compound in MDCK cells; assay type: ADME, cell-based, Canis lupus familiaris; settings: dog, read-out: permeability
[7] = biological target: Replicase polyprotein 1ab (Severe acute respiratory syndrome coronavirus 2) (UniProt P0DTD1); test: Binding affinity to SARS-CoV-2 3CL protease assessed as monophasic dissociation rate by measuring half life by jump dilution assay

Row | Structure (SMILES) | IC50 [1] [nM] | CC50 [2] [nM] | EC50 [3] [nM] | EC50 [4] [nM] | T1/2 [5] [min] | Papp [6] [×10⁻⁶ cm/s] | T1/2 [7] [min] | Ki [1] [nM]
1 | CC(C)C[C@H](NC(=O)[C@H](Cc1ccc(F)cc1)NC(=O)OCc1ccccc1)C(=O)NC(C=O)Cc1cccnc1 (mixture of isomers) | > 1000 | 10000 | > 10000 | 2000 |  |  |  | 
2 | CC(C)C[C@H](NC(=O)[C@H](Cc1ccc(F)cc1)NC(=O)OCc1ccccc1)C(=O)NC(C=O)Cc1ccncc1 (mixture of isomers) | > 1000 | 5010 | > 5010 | 631 |  |  |  | 
3 | CC(C)C[C@H](NC(=O)[C@H](Cc1ccc(F)cc1)NC(=O)OCc1ccccc1)C(=O)NC(C=O)C[C@@H]1CCNC1=O (mixture of isomers) | 0.398 | > 50100 | 3160 | 1000 | 840 | 1.62 |  | 
4 | CC(C)C[C@H](NC(=O)[C@H](Cc1ccc(F)cc1)NC(=O)OCc1ccccc1)C(=O)NC(C=O)CC1CCCC1 (mixture of isomers) | 79.4 | 10000 | 1000 |  |  |  | < 12 | 
5 | CC(C)C[C@H](NC(=O)[C@H](Cc1ccc(F)cc1)NC(=O)OCc1ccccc1)C(=O)N[C@H](C=O)CC[S+](C)[O-] (mixture of isomers) | 7.94 | > 50100 | > 50100 | 7940 | 660 |  |  | 
6 | CC(C)C[C@H](NC(=O)[C@H](Cc1ccc(F)cc1)NC(=O)OCc1ccccc1)C(=O)NC(C=O)Cc1ccc(F)cc1 (mixture of isomers) | 794 | 1260 | > 1260 | 2000 |  |  | < 12 | 
7 | CC(C)C[C@H](NC(=O)[C@H](Cc1ccc(F)cc1)NC(=O)OCc1ccccc1)C(=O)N[C@H](/C=C1\CCOC1=O)C[C@@H]1CCCO1 | 39.8 |  |  | 15800 | 660 |  |  | 
8 | CC(C)C[C@H](NC(=O)[C@H](Cc1ccc(F)cc1)NC(=O)OCc1ccccc1)C(=O)NC(C=O)Cc1ccccn1 (mixture of isomers) | 12.6 | 10000 | 1580 |  |  |  | 18 | 
9 | CC(C)C[C@H](NC(=O)[C@H](Cc1ccc(F)cc1)NC(=O)OCc1ccccc1)C(=O)NC(C=O)Cc1cncs1 (mixture of isomers) | > 1000 | 2000 | > 50100 |  |  |  |  | 
10 | CC(C)C[C@H](NC(=O)[C@H](Cc1ccc(F)cc1)NC(=O)OCc1ccccc1)C(=O)NC(C=O)Cc1cccc(F)c1 (mixture of isomers) | 631 | 794 | 794 | 2510 |  |  | < 12 | 
11 | CC(C)C[C@H](NC(=O)[C@H](Cc1ccc(F)cc1)NC(=O)OCc1ccccc1)C(=O)NC(C=O)CC1CCCO1 (mixture of isomers) | 1.26 | 10000 | 316 | 2510 | 660 | 9.56 |  | 
12 | CC(C)C[C@H](NC(=O)[C@H](Cc1ccc(F)cc1)NC(=O)OCc1ccccc1)C(=O)N[C@H](/C=C1\CCOC1=O)C[C@H]1CCCO1 | 126 |  |  | 15800 |  |  | 12 | 
13 | CC(C)C[C@H](NC(=O)[C@H](Cc1ccc(F)cc1)NC(=O)OCc1ccccc1)C(=O)NC(C=O)Cc1ccccc1F (mixture of isomers) | 3.16 | 1260 | 398 | 1580 | 414 | 5.27 |  | 
14 | CC(C)C[C@H](NC(=O)[C@H](Cc1ccc(F)cc1)NC(=O)OCc1ccccc1)C(=O)NC(C=O)Cc1ccco1 (mixture of isomers) | 126 |  |  | 5010 |  |  | < 12 | 
15 | CC(C)C[C@H](NC(=O)[C@H](Cc1ccc(F)cc1)NC(=O)OCc1ccccc1)C(=O)N[C@@H](/C=C1\CCOC1=O)C[C@H]1CCCO1 | > 1000 |  |  |  |  |  |  | 
16 | CC(C)C[C@H](NC(=O)[C@H](Cc1ccc(F)cc1)NC(=O)OCc1ccccc1)C(=O)N[C@@H](C[C@@H]1CCNC1=O)C(=O)C(=O)NC(C)C | 5.01 |  |  |  |  |  | 18 | 5.01
17 | CC(C)C[C@H](NC(=O)[C@H](Cc1ccc(F)cc1)NC(=O)OCc1ccccc1)C(=O)NC(/C=C1\CCOC1=O)CC1CCCO1 (mixture of isomers) | 158 |  |  |  |  |  | 18 | 
18 | CC(C)C[C@H](NC(=O)[C@H](Cc1ccc(F)cc1)NC(=O)OCc1ccccc1)C(=O)NC(C=O)CC(F)(F)F (mixture of isomers) | > 1000 | 1260 | > 1260 | 631 |  |  |  | 
19 | CSCC[C@@H](C=O)NC(=O)[C@H](CC(C)C)NC(=O)[C@H](Cc1ccc(F)cc1)NC(=O)OCc1ccccc1 (Cbz-[Phe(4-F)]-Leu-Met-aldehyde) | 6.31 | 3980 | 1000 | 1260 |  |  | < 12 | 
20 | CC(C)C[C@H](NC(=O)[C@H](Cc1ccc(F)cc1)NC(=O)OCc1ccccc1)C(=O)NC(CC1CCCO1)C(=O)C(=O)NC(C)C (mixture of isomers) | 200 |  |  |  |  |  | 12 | 
21 | CC(C)C[C@H](NC(=O)[C@H](Cc1ccc(F)cc1)NC(=O)OCc1ccccc1)C(=O)NC(C=O)Cc1c[nH]cn1 (mixture of isomers) | 15.8 | > 50100 | 25100 | 3980 |  |  | < 12 | 
22 | CC(C)C[C@H](NC(=O)[C@H](Cc1ccc(F)cc1)NC(=O)OCc1ccccc1)C(=O)N[C@@H](/C=C1\CCOC1=O)C[C@@H]1CCCO1 | > 1000 |  |  |  |  |  |  | 
23 | CC(C)C[C@H](NC(=O)[C@H](Cc1ccc(F)cc1)NC(=O)OCc1ccccc1)C(=O)NC(C=O)CC(F)F (mixture of isomers) | 1000 | 1580 | > 1580 | 1000 |  |  | < 12 | 
24 | COCCC(C=O)NC(=O)[C@H](CC(C)C)NC(=O)[C@H](Cc1ccc(F)cc1)NC(=O)OCc1ccccc1 (mixture of isomers) | 31.6 | 10000 | 1260 | 1580 |  |  | < 12 | 
25 | CC(C)C[C@H](NC(=O)[C@H](Cc1ccc(F)cc1)NC(=O)OCc1ccccc1)C(=O)NC(C=O)CC1CCCCO1 (mixture of isomers) | 39.8 | > 50100 |  | 2000 |  |  | 18 | 
26 | CC(C)C[C@H](NC(=O)[C@H](Cc1ccc(F)cc1)NC(=O)OCc1ccccc1)C(=O)N[C@H](/C=C1\CCOC1=O)C[C@@H]1CCNC1=O | 1.58 |  |  |  | 468 |  |  | 
27 | CC(C)C[C@H](NC(=O)[C@H](Cc1ccc(F)cc1)NC(=O)OCc1ccccc1)C(=O)NC(C=O)CCF (mixture of isomers) | 631 | 2000 | > 50100 | 1000 |  |  | < 12 | 
